Converted amounts (≈) assume the structure as drawn.
Experiments:
Caco-2 cell monolayer = assay: Caco-2 Permeation Assay; format: in vitro ADME; details: Papp, 5 μM compound; for Caco Kp 10^−6 cm/sec: apical to basal (A→B); for Cacoverap Kp 10^−6 cm/sec: A→B in the presence of 25 μM verapamil (P-gp inhibitor)
Summary of the method: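 Compound at 5 μM, in duplicate, crosses Caco-2 monolayers apical to basal over 120 min at 37 °C. This is run with and without 25 μM verapamil to test for P-gp efflux. Samples are quantified by LC-MS/MS, and Papp in cm/sec is calculated as dQ/(dt × area × concentration).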

[1] = tested on: IL-2 stimulated pSTAT5 in Tall-1 T cells; assay: Inhibition of IL-2 Stimulated pSTAT5 in Tall-1 T Cells; format: cell-based; details: Tall-1 human T cell line, IL-2 300 ng/mL, AlphaLisa
Summary of the method: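 Cells preincubated with compound 1 hour at 37° C, then stimulated with IL-2 (final 300 ng/mL) for 30 minutes. After lysis, pSTAT5 (Tyr694/699) read by AlphaLISA luminescence. IC50 from inhibition curves, reported as pIC50 (mean±SD).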

physchem = details: thermodynamic from solid

Compound	Caco Kp 10^−6 cm/sec (Caco-2 cell monolayer)	Tall-1 IL2 pSTAT5 (pIC50) [1]	Cacoverap Kp 10^−6 cm/sec (Caco-2 cell monolayer)	solubility at 4 h (physchem; oil or lipid, Solubility in MCT (mg/mL)) [µg/mL]	solubility at 4 h (physchem; organic solvent or mixture, Solubility in Diisopropyl adipate (mg/mL)) [µg/mL]	solubility at 4 h (physchem; organic solvent or mixture, Solubility in PEG400 (mg/mL)) [µg/mL]	solubility at 4 h (physchem; organic solvent or mixture, Solubility in Propylene glycol (mg/mL)) [µg/mL]	IC50 ([1]; read-out: Tall-1 IL2 pSTAT5 (pIC50) (converted)) [nM]
CCS(=O)(=O)N1[C@@H]2CCC[C@H]1C[C@H](N(C)c1nc(CO[C@@H]3CCOC3)c(F)c(Nc3cc(C)[nH]n3)n1)C2 [Compound 43, N2-((1R,3s,5S)-9-(ethylsulfonyl)-9-azabicyclo[3.3.1]nonan-3-yl)-5-fluoro-N2-methyl-N4-(5-methyl-1H-pyrazol-3-yl)-6-((((R)-tetrahydrofuran-3-yl)oxy)methyl)pyrimidine-2,4-diamine]	A (A represents a value above 30×10^−6 cm/sec)	A (A represents a pIC50 value ≥8.0)	–	–	–	–	–	–
CCS(=O)(=O)N1[C@@H]2CCC[C@H]1C[C@H](N(C)c1nc(COC3COC3)c(F)c(Nc3cc(C)[nH]n3)n1)C2 [Compound 41, N2-((1R,3s,5S)-9-(ethylsulfonyl)-9-azabicyclo[3.3.1]nonan-3-yl)-5-fluoro-N2-methyl-N4-(5-methyl-1H-pyrazol-3-yl)-6-((oxetan-3-yloxy)methyl)pyrimidine-2,4-diamine]	A (A represents a value above 30×10^−6 cm/sec)	A (A represents a pIC50 value ≥8.0)	A (A represents a value above 35×10^−6 cm/sec)	–	–	–	–	–
COC(=O)N1[C@@H]2CCC[C@H]1C[C@H](N(C)c1nc(Nc3cc(C)[nH]n3)cc(O[C@@H]3CCOC3)n1)C2 [Compound 23]	A (A represents a value above 30×10^−6 cm/sec)	–	B (B represents a value between 20×10^−6 and 35×10^−6 cm/sec)	5000 to 10000 (≈ 10.6 to 21.2 mM)	> 10000	5000 to 10000 (≈ 10.6 to 21.2 mM)	> 10000	10 to 31.6
CCS(=O)(=O)N1[C@@H]2CCC[C@H]1C[C@H](N(C)c1nc(Nc3cc(C)[nH]n3)cc(C3CCCO3)n1)C2 (stereo partly drawn) [Compound 8, N^2-((1R,3s,5S)-9-(ethylsulfonyl)-9-azabicyclo[3.3.1]nonan-3-yl)-N2-methyl-N4-(5-methyl-1H-pyrazol-3-yl)-6-(tetrahydrofuran-2-yl)pyrimidine-2,4-diamine]	A (A represents a value above 30×10^−6 cm/sec)	A (A represents a pIC50 value ≥8.0)	A (A represents a value above 35×10^−6 cm/sec)	–	–	–	–	–
CCS(=O)(=O)N1[C@@H]2CCC[C@H]1C[C@H](N(C)c1nc(CO[C@H]3CCOC3)c(F)c(Nc3cc(C)[nH]n3)n1)C2 [Compound 42, N2-((1R,3s,5S)-9-(ethylsulfonyl)-9-azabicyclo[3.3.1]nonan-3-yl)-5-fluoro-N2-methyl-N4-(5-methyl-1H-pyrazol-3-yl)-6-((((S)-tetrahydrofuran-3-yl)oxy)methyl)pyrimidine-2,4-diamine]	A (A represents a value above 30×10^−6 cm/sec)	A (A represents a pIC50 value ≥8.0)	–	–	–	–	–	–
